# From ChEMBL document CHEMBL3352542, “Synthesis, biological evaluation and molecular modeling study of 2-(1,3,4-thiadiazolyl-thio and 4-methyl-thiazolyl-thio)-quinazolin-4-ones as a new class of DHFR inhibitors” (Bioorg Med Chem Lett, 2014)
# Active and inactive are the calls of the source. No cut-off for these calls is given here.
# Experiments:
# SR = experiment: Growth inhibition of human SR cells at 10 uM after 48 hrs; assay type: functional; conditions: read-out: GI
# Bacillus subtilis [1] = experiment: Antimicrobial activity against Bacillus subtilis assessed as inhibition of visible growth after 24 hrs by disc-diffusion method; assay type: functional, organism-based
# NCI-H226 = experiment: Growth inhibition of human NCI-H226 cells at 10 uM after 48 hrs; assay type: functional; conditions: NCI-H226, 48 h, read-out: GI
# [2] = Growth inhibition of human HOP92 cells at 10 uM after 48 hrs; assay type: functional; conditions: HOP-92, 48 h, read-out: GI
# Staphylococcus aureus [3] = experiment: Antimicrobial activity against Staphylococcus aureus assessed as inhibition of visible growth after 24 hrs by disc-diffusion method; assay type: functional, organism-based
# SF-268 = experiment: Growth inhibition of human SF268 cells at 10 uM after 48 hrs; assay type: functional; conditions: SF-268, 48 h, read-out: GI
# Candida albicans = experiment: Antimicrobial activity against Candida albicans assessed as inhibition zone at 200 ug/disk after 24 hrs by disc-diffusion method; assay type: functional; conditions: read-out: IZ
# [4] = Growth inhibition of human UO31 cells at 10 uM after 48 hrs; assay type: functional; conditions: UO-31, 48 h, read-out: GI
# [5] = Growth inhibition of human LOXIMVI cells at 10 uM after 48 hrs; assay type: functional; conditions: LOX IMVI, read-out: GI
# NCI-H522 = experiment: Growth inhibition of human NCI-H522 cells at 10 uM after 48 hrs; assay type: functional; conditions: NCI-H522, 48 h, read-out: GI
# Pseudomonas aeruginosa = experiment: Antimicrobial activity against Pseudomonas aeruginosa assessed as inhibition zone at 200 ug/disk after 24 hrs by disc-diffusion method; assay type: functional; conditions: read-out: IZ
# [6] = Growth inhibition of human OVCAR3 cells at 10 uM after 48 hrs; assay type: functional; conditions: OVCAR-3, 48 h, read-out: GI
# Escherichia coli = experiment: Antimicrobial activity against Escherichia coli assessed as inhibition zone at 200 ug/disk after 24 hrs by disc-diffusion method; assay type: functional; conditions: read-out: IZ
# [7] = Growth inhibition of human PC3 cells at 10 uM after 48 hrs; assay type: functional; conditions: PC-3, 48 h, read-out: GI
# NCI-H23 = experiment: Growth inhibition of human NCI-H23 cells at 10 uM after 48 hrs; assay type: functional; conditions: NCI-H23, 48 h, read-out: GI
# Bacillus subtilis [8] = experiment: Antimicrobial activity against Bacillus subtilis assessed as inhibition zone at 200 ug/disk after 24 hrs by disc-diffusion method; assay type: functional; conditions: read-out: IZ
# [9] = Growth inhibition of human OVCAR4 cells at 10 uM after 48 hrs; assay type: functional; conditions: OVCAR-4, 48 h, read-out: GI
# Malme-3M = experiment: Growth inhibition of human MALME-3M cells at 10 uM after 48 hrs; assay type: functional; conditions: read-out: GI
# K562 = experiment: Growth inhibition of human K562 cells at 10 uM after 48 hrs; assay type: functional; conditions: K562, 48 h, read-out: GI
# [10] = Growth inhibition of human RPMI8226 cells at 10 uM after 48 hrs; assay type: functional; conditions: RPMI-8226, 48 h, read-out: GI
# [11] = Growth inhibition of human MOLT4 cells at 10 uM after 48 hrs; assay type: functional; conditions: MOLT-4, 48 h, read-out: GI
# Staphylococcus aureus [12] = experiment: Antimicrobial activity against Staphylococcus aureus assessed as inhibition zone at 200 ug/disk after 24 hrs by disc-diffusion method; assay type: functional; conditions: read-out: IZ
# [13] = Growth inhibition of human UACC62 cells at 10 uM after 48 hrs; assay type: functional; conditions: UACC-62, 48 h, read-out: GI
# Dihydrofolate reductase = biological target: T1, Dihydrofolate reductase (Bos taurus, UniProt P00376); experiment: Inhibition of bovine liver DHFR
# T1 sequence (P00376 whole entry): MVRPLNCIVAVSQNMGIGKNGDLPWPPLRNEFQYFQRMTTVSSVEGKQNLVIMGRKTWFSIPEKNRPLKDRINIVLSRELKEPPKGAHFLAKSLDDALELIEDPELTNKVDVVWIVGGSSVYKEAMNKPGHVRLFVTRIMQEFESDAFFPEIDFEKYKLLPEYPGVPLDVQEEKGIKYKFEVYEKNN
# T47D = experiment: Growth inhibition of human T47D cells at 10 uM after 48 hrs; assay type: functional; conditions: read-out: GI
# SW-620 = experiment: Growth inhibition of human SW620 cells at 10 uM after 48 hrs; assay type: functional; conditions: SW-620, 48 h, read-out: GI
# 786-0 = experiment: Growth inhibition of human 786-0 cells at 10 uM after 48 hrs; assay type: functional; conditions: 786-0, 48 h, read-out: GI
# U-251 = experiment: Growth inhibition of human U251 cells at 10 uM after 48 hrs; assay type: functional; conditions: U-251, 48 h, read-out: GI
# A498 = experiment: Growth inhibition of human A498 cells at 10 uM after 48 hrs; assay type: functional; conditions: A498, 48 h, read-out: GI
# [14] = Growth inhibition of human OVCAR8 cells at 10 uM after 48 hrs; assay type: functional; conditions: OVCAR-8, 48 h, read-out: GI
# KM12 = experiment: Growth inhibition of human KM12 cells at 10 uM after 48 hrs; assay type: functional; conditions: KM12, 48 h, read-out: GI
# NCI-H460 = experiment: Growth inhibition of human NCI-H460 cells at 10 uM after 48 hrs; assay type: functional; conditions: NCI-H460, 48 h, read-out: GI
# [15] = Growth inhibition of human OVCAR5 cells at 10 uM after 48 hrs; assay type: functional; conditions: OVCAR-5, 48 h, read-out: GI
# ACHN = experiment: Growth inhibition of human ACHN cells at 10 uM after 48 hrs; assay type: functional; conditions: read-out: GI
# SN12C = experiment: Growth inhibition of human SN12C cells at 10 uM after 48 hrs; assay type: functional; conditions: read-out: GI
# [16] = Growth inhibition of human NCI-ADR-RES cells at 10 uM after 48 hrs; assay type: functional; conditions: read-out: GI
# MCF7 = experiment: Growth inhibition of human MCF7 cells at 10 uM after 48 hrs; assay type: functional; conditions: MCF7, 48 h, read-out: GI
# CAKI-1 = experiment: Growth inhibition of human CAKI-1 cells at 10 uM after 48 hrs; assay type: functional; conditions: CAKI-1, 48 h, read-out: GI
# TK-10 = experiment: Growth inhibition of human TK10 cells at 10 uM after 48 hrs; assay type: functional; conditions: TK-10, 48 h, read-out: GI
# [17] = Growth inhibition of human SF295 cells at 10 uM after 48 hrs; assay type: functional; conditions: SF-295, 48 h, read-out: GI
# [18] = Growth inhibition of human BT549 cells at 10 uM after 48 hrs; assay type: functional; conditions: BT-549, 48 h, read-out: GI
# [19] = Growth inhibition of human HCT116 cells at 10 uM after 48 hrs; assay type: functional; conditions: HCT-116, 48 h, read-out: GI
# [20] = Growth inhibition of human HCT15 cells at 10 uM after 48 hrs; assay type: functional; conditions: HCT-15, 48 h, read-out: GI
# [21] = Growth inhibition of human UACC257 cells at 10 uM after 48 hrs; assay type: functional; conditions: UACC-257, 48 h, read-out: GI
# MDA-MB-231 = experiment: Growth inhibition of human MDA-MB-231 cells at 10 uM after 48 hrs; assay type: functional; conditions: MDA-MB-231, 48 h, read-out: GI
# CCRF-CEM = experiment: Growth inhibition of human CCRF-CEM cells at 10 uM after 48 hrs; assay type: functional; conditions: read-out: GI
# M14 = experiment: Growth inhibition of human M14 cells at 10 uM after 48 hrs; assay type: functional; conditions: M14, 48 h, read-out: GI
# HT-29 = experiment: Growth inhibition of human HT-29 cells at 10 uM after 48 hrs; assay type: functional; conditions: HT-29, 48 h, read-out: GI
# [22] = Growth inhibition of human RXF393 cells at 10 uM after 48 hrs; assay type: functional; conditions: RXF 393, 48 h, read-out: GI
# HL-60(TB) = experiment: Growth inhibition of human HL-60(TB) cells at 10 uM after 48 hrs; assay type: functional; conditions: HL-60, 48 h, read-out: GI
# SK-MEL-5 = experiment: Growth inhibition of human SK-MEL-5 cells at 10 uM after 48 hrs; assay type: functional; conditions: SK-MEL-5, 48 h, read-out: GI
# A549 = experiment: Growth inhibition of human A549 cells at 10 uM after 48 hrs; assay type: functional; conditions: A549, 48 h, read-out: GI
# [23] = Growth inhibition of human Hs 578T cells at 10 uM after 48 hrs; assay type: functional; conditions: read-out: GI
# SNB-19 = experiment: Growth inhibition of human SNB19 cells at 10 uM after 48 hrs; assay type: functional; conditions: SNB-19, 48 h, read-out: GI
# [24] = Growth inhibition of human HCC2998 cells at 10 uM after 48 hrs; assay type: functional; conditions: HCC 2998, 48 h, read-out: GI
# MDA-MB-435 = experiment: Growth inhibition of human MDA-MB-435 cells at 10 uM after 48 hrs; assay type: functional; conditions: MDA-MB-435, 48 h, read-out: GI
# MDA-MB-468 = experiment: Growth inhibition of human MDA-MB-468 cells at 10 uM after 48 hrs; assay type: functional; conditions: MDA-MB-468, 48 h, read-out: GI
smiles,measurement,setting,value
Cc1nc(N)sc1Sc1nc2ccc(Cl)cc2c(=O)n1Cc1ccccc1,inhibition of growth at 10 µM,SR,16.1%
same,Activity,Bacillus subtilis [1],Active
same,inhibition of growth at 10 µM,NCI-H226,10.4%
same,inhibition of growth at 10 µM,[2],16.8%
same,Activity,Staphylococcus aureus [3],Active
same,inhibition of growth at 10 µM,SF-268,13.3%
same,zone of inhibition at 200 µg/disc,Candida albicans,8 mm
same,inhibition of growth at 10 µM,[4],36.4%
same,inhibition of growth at 10 µM,[5],23.2%
same,inhibition of growth at 10 µM,NCI-H522,35.4%
same,zone of inhibition at 200 µg/disc,Pseudomonas aeruginosa,8 mm
same,inhibition of growth at 10 µM,[6],14.9%
same,zone of inhibition at 200 µg/disc,Escherichia coli,12 mm
same,inhibition of growth at 10 µM,[7],15.8%
same,inhibition of growth at 10 µM,NCI-H23,13.6%
same,zone of inhibition at 200 µg/disc,Bacillus subtilis [8],19 mm
same,inhibition of growth at 10 µM,[9],20.9%
same,inhibition of growth at 10 µM,Malme-3M,15.9%
same,inhibition of growth at 10 µM,K562,17.6%
same,inhibition of growth at 10 µM,[10],20.8%
same,inhibition of growth at 10 µM,[11],16%
same,zone of inhibition at 200 µg/disc,Staphylococcus aureus [12],18 mm
same,inhibition of growth at 10 µM,[13],15.2%
same,IC50,Dihydrofolate reductase,5000 nM
same,inhibition of growth at 10 µM,T47D,14.7%
Cc1nc(N)sc1Sc1nc2ccc(Cl)cc2c(=O)n1-c1ccc(Oc2ccccc2)cc1,inhibition of growth at 10 µM,SW-620,33.9%
same,inhibition of growth at 10 µM,786-0,31.5%
same,inhibition of growth at 10 µM,NCI-H226,13.6%
same,inhibition of growth at 10 µM,[2],25.6%
same,inhibition of growth at 10 µM,U-251,22.8%
same,inhibition of growth at 10 µM,A498,60.2%
same,inhibition of growth at 10 µM,[14],24.9%
same,inhibition of growth at 10 µM,KM12,20.2%
same,inhibition of growth at 10 µM,NCI-H460,18%
same,zone of inhibition at 200 µg/disc,Candida albicans,8 mm
same,inhibition of growth at 10 µM,[4],38.3%
same,inhibition of growth at 10 µM,[15],12.1%
same,inhibition of growth at 10 µM,ACHN,21.5%
same,inhibition of growth at 10 µM,[5],24.5%
same,inhibition of growth at 10 µM,SN12C,26.1%
same,inhibition of growth at 10 µM,[16],30.1%
same,inhibition of growth at 10 µM,MCF7,12.6%
same,inhibition of growth at 10 µM,CAKI-1,26.5%
same,inhibition of growth at 10 µM,NCI-H522,14.7%
same,inhibition of growth at 10 µM,TK-10,11.1%
same,inhibition of growth at 10 µM,[17],32.2%
same,inhibition of growth at 10 µM,[18],36.8%
same,inhibition of growth at 10 µM,[19],66.7%
same,zone of inhibition at 200 µg/disc,Pseudomonas aeruginosa,8 mm
same,inhibition of growth at 10 µM,[20],44.6%
same,inhibition of growth at 10 µM,[21],24.3%
same,inhibition of growth at 10 µM,MDA-MB-231,10.7%
same,inhibition of growth at 10 µM,CCRF-CEM,58.5%
same,inhibition of growth at 10 µM,M14,23.4%
same,zone of inhibition at 200 µg/disc,Escherichia coli,8 mm
same,inhibition of growth at 10 µM,[7],51.1%
same,inhibition of growth at 10 µM,HT-29,44.1%
same,inhibition of growth at 10 µM,[22],13.4%
same,inhibition of growth at 10 µM,NCI-H23,26%
same,inhibition of growth at 10 µM,HL-60(TB),40.6%
same,zone of inhibition at 200 µg/disc,Bacillus subtilis [8],8 mm
same,inhibition of growth at 10 µM,[9],59.1%
same,inhibition of growth at 10 µM,K562,25.7%
same,inhibition of growth at 10 µM,SK-MEL-5,23.9%
same,inhibition of growth at 10 µM,A549,29.8%
same,inhibition of growth at 10 µM,[23],18.1%
same,inhibition of growth at 10 µM,SNB-19,30.7%
same,inhibition of growth at 10 µM,[10],32%
same,inhibition of growth at 10 µM,[11],55.7%
same,zone of inhibition at 200 µg/disc,Staphylococcus aureus [12],8 mm
same,inhibition of growth at 10 µM,[13],36.1%
same,inhibition of growth at 10 µM,[24],26%
same,inhibition of growth at 10 µM,MDA-MB-435,11.9%
same,inhibition of growth at 10 µM,MDA-MB-468,23.4%
same,IC50,Dihydrofolate reductase,1000 nM
same,inhibition of growth at 10 µM,T47D,24.5%
